# Source: publication PMC12153265 (mBio, 2025)
# What was measured:
# [1] = tested on: SARS-CoV-2; experiment: SARS-CoV-2 replication in Caco-2 cells, viral titer in the medium by plaque assay; type: cell-based; conditions: for antiviral activity in SARS-CoV-2 infection compared with compound 1 / IC50: Caco-2, MOI = 0.1, 72 h; for antiviral activity in SARS-CoV-2 infection compared with compound 1 / reduction of viral yield: plaque assay; for IC50: viral titer in medium by plaque assay, read-out: IC50, inhibition of SARS-CoV-2 replication; for reduction of viral yield: MOI = 0.1, 72 h
# Method: (§1) NHBE (1.5 × 10^5 cells), Calu-3 (5 × 10^5 cells), or Caco-2 cells (2 × 10^5 cells) were seeded in one well of 12-well plates. Cells were washed with FBS-free medium before viral infection. SARS-CoV-2 was diluted in 250 µL (per well) medium and added to the above cells. Viral infection was incubated on a rocker for 45 min at 37°C. Cells were washed with fresh medium, and medium containing 10% FBS was added.
# (§2) Vero E6-hACE2 cells were seeded in 6- or 12-well plates. When cell confluence reached 100%, cells were washed with FBS-free medium and infected with medium containing serially diluted SARS-CoV-2. After infection, the medium was removed, and overlay medium containing FBS-free 1× DMEM and 1% low-melting point agarose was added. At 72 h post-infection, cells were fixed with 4% paraformaldehyde (PFA) overnight and stained with 0.2% crystal violet. Plaques were counted on a lightbox.
# (§3) Caco-2, NHBE, Calu-3, and Vero E6-hACE2 cells were pre-treated with compound 1, 6, or 10 and infected with SARS-CoV-2 (MOI = 0.1 for Caco-2, NHBE, and Calu-3; MOI = 0.001 for Vero E6-hACE2). Compounds were added daily during viral infection until the end of the experiments (72 h for Caco-2 and Calu-3, 48 h for NHBE, and 24 h for Vero E6-hACE2), with DMSO used as a control. Viral titer in the medium was determined by plaque assay. Cytotoxicity assay was performed for uninfected Caco-2, NHBE, Calu-3, and Vero E6-hACE2 cells with the same treatment schedule as that of viral replication assay. Cytotoxicity was determined with an XTT assay kit (Roche), according to the manufacturer’s instructions. The percentage of inhibition was normalized to DMSO control. IC50, IC90, and CC50 were calculated with GraphPad Prism software.
# [2] = tested on: Caco-2 cells; experiment: Cytotoxicity, XTT assay, uninfected Caco-2 cells; type: cell-based, human; conditions: uninfected Caco-2, XTT assay, 72 h; read-out: CC50, cell viability
# Method: as §3
# [3] = tested on: SARS-CoV-2; experiment: SARS-CoV-2 replication (plaque assay) and cytotoxicity (XTT) in Calu-3 cells; type: cell-based; conditions: Calu-3, MOI = 0.1, 72 h
# Method: as §3
# [4] = tested on: IFN-β promoter; experiment: IFN-β induction by Sendai virus, luciferase reporter assay in 293T cells; type: cell-based, human; conditions: SeV infection; for IFN induction compared with compound 1, reporter assay: 293T cells
# Method: (§4) HEK293T cells in 24-well plates (~50% cell density) were transfected with a reporter plasmid cocktail containing 50 ng luciferase reporter plasmid (ISRE-luc, IFN-β-luc, or NF-κB), 5 ng TK-renilla luciferase reporter (control vector), and the indicated expression plasmids by calcium phosphate precipitation. Whole cell lysates (WCLs) were prepared at 24–30 h post-transfection and used for dual luciferase assay according to the manufacturer’s instruction (Promega).
# [5] = tested on: SARS-CoV-2; experiment: SARS-CoV-2 infection of K18-hACE2 transgenic mice; type: in vivo, mouse; conditions: 50 mg/kg daily intraperitoneal, 3 dpi
# Method: K18-hACE2 transgenic mice were intraperitoneally administered with compound 10 at a dose of 50 mg/kg and vehicle 1 day before infection with 1 × 10^4 PFU of SARS-CoV-2. Body weight and compound administration were monitored daily. Mice were humanely euthanized at 3 dpi, and the lung tissues were harvested for viral titration, real-time PCR, and pathological analysis.
# K18-ACE2 transgenic mice were euthanized on day 3 after SARS-CoV-2 infection. Fresh lung pieces were fixed with 10% formalin for 24 h. The post-caval lobes of the […] were sent to the histology lab in USC of the School of Pharmacy Core Facilities for processing and hematoxylin and eosin (H&E) staining. In brief, tissues were dehydrated and embedded in paraffin. Paraffin-embedded tissue blocks were sectioned with 5 µm thickness. Sections were processed by H&E staining and imaged by ZEISS Axio Scope.A1 microscope (Zeiss) and analyzed by ZEISS ZEN Blue software.
# Immunofluorescence staining was performed on the middle lobes of the […] fixed with 10% formalin. Tissues were embedded in optimal cutting temperature (OCT) compound and frozen immediately at −80°C. Subsequently, the frozen tissues were cut into 8 µm sections using a cryostat-microtome. Sections were blocked with 10% normal goat serum diluted in PBST for 1 h and incubated with primary antibodies diluted in 10% normal goat serum overnight at 4°C. After washing with PBST, sections were incubated with species-matched secondary antibodies for 30 min at room temperature. Then tissue sections were washed with PBST, mounted with VectaMount Mounting Medium (Vector Laboratories), and analyzed by a confocal microscope (Nikon).
# [6] = tested on: SARS-CoV-2; experiment: SARS-CoV-2 infection of AAV-hACE2-transduced C57BL/6 J mice; conditions: 35 mg/kg daily intraperitoneal, 4 dpi
# [7] = molecular target: CTPS1 (Homo sapiens, UniProt P17812); experiment: CTPS1 enzymatic activity assay (UTP to CTP conversion, mass spectrometry); type: biochemical; conditions: read-out: inhibition of CTP synthesis compared with DMSO
# [8] = tested on: CTP synthesis; experiment: Intracellular CTP/CDP synthesis, [amide-15N]glutamine tracing and mass spectrometry
# [9] = tested on: SARS-CoV-2; experiment: SARS-CoV-2 replication in NHBE cells, viral titer in the medium by plaque assay; type: cell-based; conditions: Severe acute respiratory syndrome coronavirus 2, NHBE, 48 h
# Method: as §1, §2
# Caco-2, NHBE, Calu-3, and Vero E6-hACE2 cells were pre-treated with compound 1, 6, or 10 and infected with SARS-CoV-2 (MOI = 0.1 for Caco-2, NHBE, and Calu-3; MOI = 0.001 for Vero E6-hACE2). […] Viral titer in the medium was determined by plaque assay. […] Cytotoxicity was determined with an XTT assay kit (Roche), according to the manufacturer’s instructions. […] IC50, IC90, and CC50 were calculated with GraphPad Prism software.
# [10] = tested on: SARS-CoV-2; experiment: SARS-CoV-2 RNA abundance in infected Caco-2 cells, real-time PCR; type: cell-based; conditions: MOI = 0.1, 72 h
# [11] = tested on: IFNB1; experiment: Antiviral gene expression in 293T cells infected with Sendai virus, real-time PCR
# [12] = Cytotoxicity, XTT assay, uninfected NHBE cells; type: cell-based; conditions: human, read-out: CC50, cell viability
# Method: as §3
# [13] = tested on: NF-κB; experiment: NF-κB activation by Sendai virus, luciferase reporter assay in 293T cells; type: cell-based, human; conditions: SeV infection
# Method: as §4
# [14] = Cytotoxicity, XTT assay, uninfected Caco-2 cells; type: cell-based, human; conditions: human, uninfected Caco-2 cells, uninfected Caco-2, XTT assay, read-out: CC50, cell viability
# Method: as §3
# [15] = tested on: IFNB1, ISG56, CCL5, Mx1; experiment: Antiviral gene expression in SARS-CoV-2-infected Caco-2 cells, real-time PCR; type: cell-based, human; conditions: Caco-2, 2 µM and 6 µM, MOI = 0.1, 48 h
# [16] = molecular target: T1, CTPS1 (Homo sapiens, UniProt P17812); experiment: Covalent labeling of FLAG-CTPS1 in 293T cells, in-gel fluorescence imaging; type: binding; conditions: FLAG-CTPS1 expressing 293T cells, 2 h
# T1 construct: expressed in transfected cells; host or cells: 293T cells expressing FLAG-CTPS1
# T1 sequence (P17812 1-591): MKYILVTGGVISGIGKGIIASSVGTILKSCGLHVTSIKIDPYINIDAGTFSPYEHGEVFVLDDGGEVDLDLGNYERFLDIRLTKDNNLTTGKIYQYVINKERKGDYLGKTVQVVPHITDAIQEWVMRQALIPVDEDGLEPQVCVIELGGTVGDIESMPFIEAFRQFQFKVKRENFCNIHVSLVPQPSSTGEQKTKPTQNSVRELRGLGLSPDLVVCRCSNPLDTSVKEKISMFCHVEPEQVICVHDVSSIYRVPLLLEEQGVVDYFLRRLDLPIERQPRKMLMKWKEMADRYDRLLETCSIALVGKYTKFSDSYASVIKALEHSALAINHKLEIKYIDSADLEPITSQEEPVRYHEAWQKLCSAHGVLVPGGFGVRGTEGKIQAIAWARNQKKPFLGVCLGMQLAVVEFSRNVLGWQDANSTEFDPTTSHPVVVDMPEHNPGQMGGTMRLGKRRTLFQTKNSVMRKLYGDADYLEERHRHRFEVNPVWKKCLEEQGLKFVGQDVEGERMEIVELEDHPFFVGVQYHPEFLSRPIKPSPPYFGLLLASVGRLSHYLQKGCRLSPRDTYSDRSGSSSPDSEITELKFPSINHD
smiles,measurement,setting,value
COc1ccccc1NC(=O)c1cccc(NC(=O)CCl)c1 [Compound 6],antiviral activity in SARS-CoV-2 infection compared with compound 1,[1],more robust antiviral activity
same,IC50,[1],140 nM
same,CC50,[2],2820 nM
same,CC50 value relative to IC50 value,[3],IC50 values as high as their CC50 values
same,"IFN induction compared with compound 1, reporter assay",[4],better effect on IFN induction than compound 1
CCCCCNC(=O)c1cccc(NC(=O)CCl)c1 [Compound 10],antiviral activity in SARS-CoV-2 infection compared with compound 1,[1],more robust antiviral activity
same,IC50,[1],110 nM
same,"lung pathology, H&E staining (inflammatory infiltration)",[5],weak and isolated infiltration of immune cells
same,"viral N protein in the lung, immunofluorescence staining",[5],lower expression of viral protein
same,immune gene expression in the lung,[5]; vs vehicle,elevated
same,viral RNA abundance in the lung,[5]; vs vehicle,reduced
same,viral titer in the lung,"[5]; vs vehicle, plaque assay",reduced
same,viral titer in the lung,[6]; plaque assay,decreased
same,"expression of cellular antiviral genes (Ifnb1, Isg15, Isg56, Mx1) in the lung",[6]; real-time PCR,elevated
same,CC50,[2],6170 nM
same,CC50 value relative to IC50 value,[3],10 fold
same,"IFN induction compared with compound 1, reporter assay",[4],better effect on IFN induction than compound 1
COc1cccc(NC(=O)c2cccc(NC(=O)CCl)c2)c1 [Compound 1],reduction of viral yield,"[1]; Caco-2, 2 µM",~ 10 fold
same,reduction of viral yield,"[1]; Caco-2, 6 µM",~50 fold
same,IC90,"[1]; Severe acute respiratory syndrome coronavirus 2, Caco-2, 72 h, read-out: IC90, inhibition of SARS-CoV-2 replication",1560 nM
same,IC50,[1]; Severe acute respiratory syndrome coronavirus 2,170 nM
same,inhibition at 10 µM,[7],55 to 83%
same,intracellular concentration of [amide-15N]CTP and [amide-15N]CDP,[8]; Caco-2 cells infected with SARS-CoV-2,potently diminished
same,[amide-15N]CTP and [amide-15N]CDP,[8]; Caco-2 cells stably expressing ORF8,diminished
same,IC50,"[9]; read-out: IC50, inhibition of SARS-CoV-2 replication",970 nM
same,IC90,"[9]; read-out: IC90, inhibition of SARS-CoV-2 replication",8700 nM
same,"reduction of viral RNA abundance (Nsp1, N, E)","[10]; Caco-2, 2 µM",> 50%
same,"reduction of viral RNA abundance (Nsp1, N, E)","[10]; Caco-2, 6 µM",~ 75%
same,IFNB1 expression,[11]; 293T cells infected with Sendai virus,increased IFNB1 expression in a dose-dependent manner
same,expression of IFNB1 and ISG56 inhibited by Nsp8 and ORF8,"[11]; 293T cells transfected with Nsp8 or ORF8, SeV infection, 6 h",significantly restored
same,CC50 at 48 h,[12],3750 nM
same,"NF-κB activation, luciferase reporter",[13],no effect
same,CC50 at 72 h,[14],2420 nM
same,CC50 value relative to IC50 value,[3],IC50 values as high as their CC50 values
same,"expression of antiviral genes (IFNB1, ISG56, CCL5, Mx1)",[15],elevated
same,"IFN induction, luciferase reporter",[4]; CTPS1-depleted 293T cells,failed to do so
same,"IFN induction, luciferase reporter",[4]; control 293T cells,elevated IFN induction
C#CCOc1cccc(NC(=O)c2cccc(NC(=O)CCl)c2)c1 [Compound 2],covalent labeling of CTPS1,[16],covalently labeled CTPS1 in a dose-dependent manner
